Here are results for one compound from patent US9446127B2, “Compositions including androgen receptor degradation (ARD) enhancers and methods of prophylactic or therapeutic treatment of skin disorders and hair loss” (AndroScience Corporation, priority 2007, dated 2016).

The target in experiment [1] is T1, androgen receptor (AR) (Homo sapiens, UniProt P10275, T878A).
T1 construct: endogenous in cells; host or cells: LNCaP
T1 sequence (P10275 1-920 T878A): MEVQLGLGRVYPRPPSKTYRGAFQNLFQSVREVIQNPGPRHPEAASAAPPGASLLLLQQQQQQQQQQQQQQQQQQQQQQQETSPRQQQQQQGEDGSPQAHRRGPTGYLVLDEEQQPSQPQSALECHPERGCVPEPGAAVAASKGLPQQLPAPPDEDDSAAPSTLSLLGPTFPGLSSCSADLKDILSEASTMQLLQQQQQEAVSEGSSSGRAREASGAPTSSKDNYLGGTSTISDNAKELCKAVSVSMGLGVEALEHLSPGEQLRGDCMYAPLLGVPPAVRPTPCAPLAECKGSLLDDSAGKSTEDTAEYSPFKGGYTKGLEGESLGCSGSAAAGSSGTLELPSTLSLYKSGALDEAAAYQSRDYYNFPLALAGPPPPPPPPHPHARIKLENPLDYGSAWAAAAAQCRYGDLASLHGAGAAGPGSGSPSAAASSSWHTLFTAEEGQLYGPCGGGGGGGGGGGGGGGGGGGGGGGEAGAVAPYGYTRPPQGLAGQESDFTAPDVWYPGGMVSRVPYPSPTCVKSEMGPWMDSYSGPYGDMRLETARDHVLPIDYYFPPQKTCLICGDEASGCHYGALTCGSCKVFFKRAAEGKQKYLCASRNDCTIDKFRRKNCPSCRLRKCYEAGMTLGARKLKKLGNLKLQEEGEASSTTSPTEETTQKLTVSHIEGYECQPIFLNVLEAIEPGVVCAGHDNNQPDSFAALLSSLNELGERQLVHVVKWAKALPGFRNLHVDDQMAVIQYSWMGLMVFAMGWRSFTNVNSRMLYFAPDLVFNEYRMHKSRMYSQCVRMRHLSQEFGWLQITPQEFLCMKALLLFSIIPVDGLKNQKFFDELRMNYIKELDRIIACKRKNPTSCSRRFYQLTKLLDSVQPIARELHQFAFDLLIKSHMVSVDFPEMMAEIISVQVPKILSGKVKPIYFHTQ
Briefly: AR degradation in LNCaP cells in the presence of cycloheximide (Western blot). The format is cell-based. As to conditions: 20 micromolar, cycloheximide 15 micrograms/milliter. As to the method: To determine whether the observed reduction of AR protein levels was due to protein degradation rather than inhibition of AR protein synthesis, a second set of three replicate experiments was performed. In these experiments, the protein synthesis inhibitor cycloheximide (CHX) was used to prevent the cells from synthesizing new proteins. In the absence of new AR protein synthesis, any alterations in AR levels would be mainly attributable to protein degradation. LNCaP cells were cultured in the presence and absence of ASC-J9 (20 micromolar) and in the presence and absence of cycloheximide (15 micrograms/milliter). Cells were then incubated for 0, 3, 6 and 12 hours before harvesting and analysis of AR levels by Western blot.
(In general: Immunoblotting shows a protein as a band on a membrane.)

Experiment [2] has as its target T1, androgen receptor (AR). Briefly: Western blot analysis of AR expression in LNCaP cells. The format is cell-based.
Excerpt: Briefly, cells (for example, LNCap cells) are harvested either in 2× sodium dodecyl sulfate (SDS) loading buffer or in radioimmunoprecipitation assay (RIPA) lysis buffer (see “Antibodies: A Laboratory Manual”, E. Harlow and D. Lane, Cold Spring Harbor Laboratory, 1988) containing 10 micrograms/milliliter of benzamidine, 10 micrograms/milliliter of trypsin inhibitor, and 1 millimolar of phenylmethylsulfonyl fluoride (PMSF). Total protein (40 micrograms/sample, or as desired) from cell lysate is separated on a SDS-PAGE gel. After separation, proteins are transferred from the gel to a nitrocellulose membrane following standard Western blot procedures. The membrane is blocked with a suitable blocking agent (such as 10% non-fat milk in phosphate-buffered saline supplemented with 0.1% Tween-20 (PBST)) to reduce non-specific binding overnight. The membrane is incubated with a suitable primary antibody specific for human AR (for example, anti-human AR from BD-PharMingen) at 4 degrees Celsius overnight or at room temperature for 2 hours. […] The membrane is rinsed with PBST, and a suitable visualization procedure is used to detect the secondary antibody (for example, horseradish peroxidase can be detected with a colorimetric substrate or by a chemiluminescent substrate such as that provided by the enhanced chemiluminescence (ECL Plus) kit from Amersham). […] Quantification of the protein signals can be carried out by densitometry, using appropriate software (ImageJ software from the National Institutes of Health).
LNCaP cells from the above described experiment were harvested at designated times, cell lysate was prepared for Western blot analysis as described previously. A color detection method was subsequently employed to examine AR and actin protein signals in the membranes, and the resultant protein signals were quantitated by densitometry. In FIG. 4B, normalized AR signals (as relative to actin protein) are reported, which were expressed as a percentage of baseline (Day 0) value. […]
Cells were then harvested and AR protein was quantified by Western blot.
In a further experiment the test system is LNCaP cells. Briefly: LNCaP cell growth assay (cell count). The format is cell-based, human. The settings on record: 5 μM. The method, then:
LNCaP cells express an endogenous mutant AR that is found in prostate cancer patients. This clinically relevant cell model was used to study ASC-J9's effect in suppressing prostate cancer cell growth. Cells were plated, at a density of approximate 6.5×10^4 cells/well, into 6-well tissue culture dishes. Two days later, the complete medium was aspired and 10% charcoal/dextran-treated (hormone depleted) serum-containing medium was added. Test compound, ASC-J9 was then added to the medium at a final concentration of 5 μM with or without 1 nM of DHT. For vehicle control, the same amount of DMSO was added into the medium. For the subsequent 5 days, the medium was aspired once per day, and replaced with fresh medium containing test compound and/or DHT. At designated times, a portion of cells was harvested by trypsinization, and cell count was performed using a hemacytometer.

The subject of another experiment is sebaceous glands. Briefly: Reduction of sebaceous glands in Fuzzy rats, topical cream. The class given is in vivo. The method, then:
Topical creams were prepared as later described in EXAMPLE 12. […] The test or control creams were applied using a cotton swab to the dorsal skin of the animal, once daily, over a period of 8 weeks. Animals were then sacrificed and skin samples collected for microscopic examination. Commercial hair remover was applied to the dorsal surface of the euthanized animals. After 5 minutes, the hair remover and hairs were removed with a tissue. The area was thoroughly cleaned with 75% isopropyl alcohol. A 4-millimeter skin punch was used to remove skin tissue samples, which were incubated for 2 to 3 hours in a ethylenediaminetetraacetate (EDTA, 17 millimolar), sodium phosphate (0.1 molar, pH 7.4) solution at 37 degrees Celsius. The epidermis was carefully separated from the dermis and stored in 10% phosphate-buffered formalin. Prior to microscopic examination, the samples were mounted on glass slides. Areas of well-preserved glandular lobules were selected for microscopic imaging. Edges of the glandular lobes were traced and the areas of the traced lobes obtained with Image J software (National Institutes of Health).

In a further experiment the test system is skin wounds. Briefly: Skin wound healing in Balb/c mice. As to conditions: cream 25 uM twice per day. The format is in vivo. As to the method: The ability of ASC-J9 to hasten wound healing in an animal model was tested using Balb/c mice. Using a skin puncher, wounds were created near the back of the neck region on retired male breeder Balb/c mice. Mice were treated with either an ASC-J9 cream (25 uM) or a vehicle control cream twice per day topically at the wound site.

For the compound `COc1ccc(C=CC(=O)C=C(O)C=Cc2ccc(OC)c(OC)c2)cc1OC` [ASC-J9, 5-hydroxy-1,7-bis(3,4-dimethoxyphenyl)-1,4,6-heptatrien-3-one], the “time within which degradation of existing AR protein was enhanced” value on androgen receptor (AR) [1] is at most 4 h. The “time at which AR reduction was first observed” value on androgen receptor (AR) [2] (5 μM, continuous incubation) was determined as 2 days. Also, the “AR remaining, normalized AR signal as percentage of baseline (Day 0)” value on androgen receptor (AR) [2] (5 μM, end of 5-day incubation) is reported as around 10%. Besides, the “AR protein, ARD enhancer compared with conventional anti-androgens” value at androgen receptor (AR) [2] (48 hours, Western blot (FIG. 7B)) is reported as “decreased AR protein”. The “LNCaP cell growth in the presence of DHT” value with LNCaP cells (1 nM DHT, 5 days) is listed as “good potency to decrease LNCaP cell growth”. Moreover, in the experiment with LNCaP cells (end of 5-day incubation), the viable cells entry was “only a minimal number of viable cells”. In the experiment on LNCaP cells (without DHT, starting from Day 2, vs vehicle control), the “cell number per well” value is reported as “marked decrease in cell number”. In addition, in the experiment with sebaceous glands (male Fuzzy rats, topical (FIG. 10E), comparable to castration, better than flutamide), the “size of ducts of sebaceous glands” value is given as “significantly reduced the size of ducts”. For the same compound, the “size of the sebaceous gland” value in the experiment on sebaceous glands (male rats, topical, 200 μM (FIG. 10A-C), not to the extent caused by castration) is “significant reduction in the size of the sebaceous gland”. In the experiment with sebaceous glands (topical cream 25 micromolar, once daily), the “time to reduction of brown skin color and bands of sebaceous glands” value is reported as 4-5 weeks. In addition, the “size of the sebaceous glandular lobe” value in the experiment on sebaceous glands (topical, various concentrations (FIG. 10D), less than castration, better than flutamide) is listed as “significant reduction in the size of the sebaceous glandular lobe”. Further, the wound size entry in the experiment on skin wounds (day 5, vs vehicle) is reported as “smaller wound size”. Moreover, in the experiment with skin wounds (day 10), the wound healing result is reported as “completely healed”.
